The test system of test [1] is HIV-1IIIB. The test can be described thus: HIV-1 antiviral assay in CEM-SS cells.
Test [2] deals with Primary Human endothelial cells (HUVEC). The test is described as follows: Endothelial cell migration assay. Type of test: cell-based. Conditions: 10 micrograms per ml; 22 hours. Here is the method: Thereafter, designated concentration of testing peptides—10 micrograms per ml—was added in duplicate wells.
The test system of test [3] is Interferon-γ (IFN-γ) production in murine spleen cells. The test can be described thus: Th1/Th2 cytokine profiling assay: IFN-γ. The test is classed as cell-based, Balb/c mice. Conditions: 10 micrograms per ml; Ovalbumin restimulation, 72 hours; combination 0.95:1.05 mole.
Test [4] concerns Tumor Necrosis Factor-α (TNF-α) production in murine spleen cells. The test can be described thus: Th1/Th2 cytokine profiling assay: TNF-α. Type of test: cell-based, Balb/c mice. Conditions: 10 micrograms per ml, Ovalbumin restimulation, 72 hours.
The test system of test [5] is Interleukin-2 (IL-2) production in murine spleen cells. The test is described as follows: Th1/Th2 cytokine profiling assay: IL-2. Type of test: cell-based, Balb/c mice. The settings on record: 10 micrograms per ml; Ovalbumin restimulation, 72 hours.
Test [6] concerns Interleukin-5 (IL-5) production in murine spleen cells. The test is described as follows: Th1/Th2 cytokine profiling assay: IL-5. The test is classed as cell-based, Balb/c mice. Conditions: 10 micrograms per ml, Ovalbumin restimulation, 72 hours.
In test [7] the test system is hepatitis B virus (HBV) ayw strain in HepG2-2.2.15 cells. The test can be described thus: HBV experimental assay system (secreted HBV DNA, TaqMan PCR). The test is classed as cell-based. Conditions: 10 micrograms per ml; 6 days; combination 0.95 mole peptide 1 and 1.05 mole peptide 2. In general terms: Real-time PCR tracks product formation cycle by cycle.
Test [8] deals with Interleukin-4 (IL-4) production in murine spleen cells. The test is described as follows: Th1/Th2 cytokine profiling assay: IL-4. Type of test: cell-based, Balb/c mice. Conditions: 10 micrograms per ml, Ovalbumin restimulation, 72 hours.
In test [9] the test system is HCMV strain AD169. The settings on record: for inhibition of HCMV plaque formation as compared to the virus control experiment: 10 micrograms per ml, 7-10 days.
In test [10] the test system is HUVEC. The test is described as follows: Endothelial tube formation assay. Type of test: cell-based, human. The settings on record: 10 micrograms per ml; 20 hours. The source says:
Positive control was vehicle only.

Where no end group is shown, it is not given here.

With `CC(C)(C)NC(=O)[C@@H]1CN(Cc2cccnc2)CCN1C[C@@H](O)C[C@@H](Cc1ccccc1)C(=O)N[C@H]1c2ccccc2C[C@H]1O` [indinavir], the “antiviral activity of positive control compounds” value in test [1] is “expected levels of antiviral activity”.

As to “Ile-Asn-Leu-Lys-Ala-Leu-Ala-Ala-Leu-Ala-Lys-Lys-Ile-Leu-NH2 (INLKALAALAKKIL-NH2) [Peptide 2]”, the “inhibition of the migration of human endothelial cells” value in test [2] stood at 23%. The “production of IFN-y, decreased by” value in test [3] is 54%. Moreover, the “production of TNF-a, decreased by” value in [4] was found to be 61.3%. Besides, the “production of IL-2, increased by” value in [5] is 77%. In [6] (combination 0.95:1.05 mole), the “change of the production of IL-5” value was “did not significantly change”. The “inhibition of HBV replication as compared to the virus control infection” value in [7] was 40.6%. Moreover, the “change of the production of IL-4” value in [8] (combination 0.95:1.05 mole) is reported as “did not significantly change”. Moreover, the “inhibition of HCMV plaque formation as compared to the virus control experiment” value in [9] is given as “did not inhibit”. The “inhibition of the tube formation of human endothelial cells” value in test [10] was found to be 10%.

On to `Nc1nc(O)c2ncn(COC(CO)CO)c2n1` [Ganciclovir, reference compound], for which, in test [9] (positive control, MRC-5 cells, HCMV), the “antiviral activity of positive control compound” value is on record as “expected levels of antiviral activity”.

Turning to `Cc1cn([C@H]2C[C@H](N=[N+]=[N-])[C@@H](CO)O2)c(=O)[nH]c1=O` [AZT], the “antiviral activity of positive control compounds” value in test [1] is on record as “expected levels of antiviral activity”.

In the case of `CCNC(=O)[C@@H]1CCCN1C(=O)[C@H](CCCN=C(N)N)NC(=O)[C@H](CC(C)C)NC(=O)[C@@H](Cc1c[nH]c2ccccc12)NC(=O)[C@H](Cc1ccc(O)cc1)NC(=O)[C@H](CO)NC(=O)[C@H](Cc1c[nH]c2ccccc12)NC(=O)[C@H](Cc1cnc[nH]1)NC(=O)[C@@H]1CCC(=O)N1` [Peptide 1, Pyr-His-Trp-Ser-Tyr-D-Trp-Leu-Arg-Pro-NHEt], the “inhibition of the migration of human endothelial cells” value in [2] is recorded as 3%. In addition, the “production of IFN-y, decreased by” value in test [3] amounted to 31.4%. In test [4] (combination 0.95:1.05 mole), the “change of the production of TNF-alpha” value was “did not significantly change”. Also, the “production of IL-2, decreased by” value in test [5] is reported as 53.2%. In addition, in test [6], the “production of IL-5, decreased by” value stood at 27.6%. For the same compound, the “inhibition of HBV replication as compared to the virus control infection” value in test [7] is 15.1%. In [8], the “production of IL-4, induced by” value was 32.1%. In addition, the “inhibition of HCMV plaque formation as compared to the virus control experiment” value in test [9] is reported as “did not inhibit”. The “inhibition of the tube formation of human endothelial cells” value in test [10] stood at 7%.

The record behind these values is patent US20100184698A1, “USE OF A […] […] A […] AGENT” (priority 2007, published 2010).
